Test: gradient 5% acetonitrile 3 min, to 50% in 2 min, to 85% in 15 min, held 3 min, 100 µL/min
Settings: column: Zorbax Extend-C18 2.1 x 50 mm; eluents: water / acetonitrile, 0.1% formic acid
How it was run: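 The mobile phases were water and acetonitrile, each with 0.1% formic acid, pumped at 100 μL/min through a Zorbax Extend-C18 column (2.1 × 50 mm, 1.8 μm). Pure standards were injected as mixtures of ~100 molecules and detected by a quadrupole time-of-flight mass spectrometer in positive and negative ionization mode. Retention time came from computationally picked adduct peaks, each inspected by hand.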

RP-LC retention time [s]	SMILES
639	COc1ccc(Nc2c(C(=O)N3CCCCC3C)cnc3nc(C)ccc23)cc1 (centres undefined)
675	Cc1nn(C(C)C(=O)NCCCN(C)C2CCCCC2)c(=O)c2c(C)n(-c3ccccc3)nc12 (centres undefined)
764	O=C(c1nc(-c2ccnc(N3CCCCC3)c2)no1)N1CCCCC1
843	Cn1cccc1CN(C(=O)C1(c2ccccc2)CCOCC1)C1CC1
687	CN1CCCCc2cc(C(=O)NCCN(C)C3CCCCC3)sc21
708	CCc1ccc(-c2cc(C(N)=O)[nH]n2)cc1
906	Cc1cccc(-n2cc(C(=O)OCc3cc(=O)n4ccccc4n3)c3ccccc3c2=O)c1
543	CC(C)CC(=O)N1CCCn2nc(-c3ccncc3)cc2C1
610	CCN(CCN(C)C)c1ccc(C(=O)O)cc1NS(=O)(=O)c1ccccc1
833	Cc1csc(-c2ccc(N3CCN(C(=O)c4ccc5ccccc5n4)CC3)nc2)n1
673	Cc1ccc(NC(=O)Nc2ccc3nnc(C)n3c2)cc1
1040	Cc1cccc(NC(=O)c2csc(-c3cn(C)c4ncccc34)n2)c1
669	CNC(=O)c1cc(C(=O)c2ccc3nc(Nc4ccc(Cl)cc4)[nH]c3c2)ccn1
1040	Cc1ccccc1NC(=O)Cc1cccn1-c1ccc(Cl)cc1
958	CCN1C(=O)c2ccccc2Oc2ccc(C(=O)NCc3ccc(C)cc3)cc21
643	Cc1c(C2CCN(C(=O)c3n[nH]c4ccccc34)CC2)noc1N
897	CSc1ccc(NC(=O)NC2CCN(c3ccc(C)c(C)c3)C2=O)cc1 (centres undefined)
638	Cc1ccc(C)c(NC(=O)N2CCC(n3c(C)nc4cccnc43)CC2)c1
1110	COc1ccc(Cl)cc1NC(=O)C1CCN(S(C)(=O)=O)c2cc(C)ccc2O1 (centres undefined)
801	COc1ccc(C2CC(=O)N(c3ccc(F)cc3)C(=O)C2)cc1OC
994	Cn1c(Nc2ccc(C(F)(F)F)cc2)nc2cc(Oc3ccnc(-c4ncc(C(F)(F)F)[nH]4)c3)ccc21
976	CCc1noc(-c2nc(-c3ccc(OC)cc3OC)no2)n1
887	CCSc1nnc(NC(=O)CSc2nnnn2-c2ccccc2CC)s1

RP-LC retention time [s]	SMILES
1080	Cc1ccc(NC(=O)N2CCCC(C)(C(=O)NCc3ccccc3C)C2)cc1Cl (centres undefined)
611	CCNC(=O)c1cc(C2CC2)[nH]n1
685	Cc1nc(-c2ccc3c(c2)n(CC(=O)NC2CC2)c(=O)n3C(C)C)no1
1070	Cc1ccc2c(c1)N(Cc1cccc(F)c1)N=C(C(=O)N1CCC(C)CC1)S2(=O)=O
809	COCCn1c(Cc2cccn2C)nnc1SCC(=O)N1CCCc2ccccc21
779	Cc1noc2nc(C)n(CC(=O)Nc3ccccc3C(F)(F)F)c(=O)c12
941	COc1ccc(C(=O)CSc2nnnn2-c2cccc(C)c2)cc1
749	Cc1ccc(C2Cn3cnc(C(=O)N4CCC(C(=O)NC5CCCC5)CC4)c3CO2)cc1 (centres undefined)
619	O=C(CSc1ccc(N2CCCC(C(=O)NC3CC3)C2)nn1)Nc1ccc2c(c1)OCCO2 (centres undefined)
1240	Cc1cccc(NC(=O)c2cc(C(C)(C)C)n3nccc3n2)c1
954	Cc1ccc2[nH]cc(CCNC(=O)CN3C(=O)CSc4cccn4-c4ccccc43)c2c1
733	CN(CC1CCOC1)C(=O)Nc1cccc(Cl)c1F (centres undefined)
797	Cc1c(C(=O)N2CCOCC2)cnn1-c1cc(-c2nc(C3CC3)no2)ccn1
626	Cc1noc(CNC(=O)c2n[nH]c3ccccc23)n1
860	CCc1ccc(CNC(=O)CN2CCc3ccccc3C2C(=O)N2CCCC2)cc1 (centres undefined)
877	Cc1ccc(N2CC(c3noc(-c4ccco4)n3)CC2=O)cc1 (centres undefined)
715	Cc1[nH]c(C(=O)N2CCC(CC(=O)NCCCOC(C)C)CC2)c(C)c1C
882	CN1C(=O)C(C)(C)COc2cc(NC(=O)CCSc3ccccc3)ccc21
876	O=C(c1ccc(F)c(F)c1)N1CCN(C(=O)c2nnn3c2COC(c2ccccc2)C3)CC1 (centres undefined)
569	COc1ccc(CCC(=O)N2CCn3c(C)nnc3C2)cc1
711	CC(=O)Nc1ccc(C2(C(=O)N3CCCCC3)CCC2)cc1
805	Cc1ccc(NC(=O)Cn2nc(N(C)C)c3ccccc3c2=O)c(F)c1
752	CCOCC(=O)N1CCCN(C2=NS(=O)(=O)C(c3ccc(C)cc3)=C2C)CC1

RP-LC retention time [s]	SMILES
826	O=C(C1=CN(c2ccc(Br)cc2)c2cc(F)ccc2S1(=O)=O)N1CCOCC1
1170	COc1ccc(NC(=O)c2cn(-c3cc(N4CCCC(C)C4)ncn3)cn2)c(OC)c1 (centres undefined)
655	O=C(c1ccc(Br)cc1)N1CCN(c2nc(CN3CCCCC3)cs2)CC1
671	CCOC(=O)CNC(=O)N1CCCN(c2nc3cc(Br)ccc3n3cccc23)CC1
1120	CSc1cccc(NC(=O)c2cn(C)nc2S(=O)(=O)N2CCC(C)CC2)c1
665	CC(=O)N1CCCN(C2=NS(=O)(=O)C(c3ccccc3)=C2C)CC1
680	CC(NC(=O)Cc1ccc(Cl)cc1)C(=O)Nc1nc2ccccc2[nH]1 (centres undefined)
551	Cc1nccn1-c1ccc(=O)n(CCNC(=O)c2cccc(C(F)(F)F)c2)n1
836	O=C(Cn1cc(C(=O)c2ccccc2)c(=O)c2cc(F)ccc21)Nc1ccc2c(c1)OCO2
686	COc1cc(=O)c(C(=O)NC(C)C)nn1-c1ccc(F)cc1
751	CCn1c(=O)sc2cc(S(=O)(=O)N3CCC(C(=O)Nc4ccccn4)CC3)ccc21
829	COc1ccc(NC(=O)Cn2c(C(F)(F)F)nc3cc4c(cc32)OCCO4)cc1
817	COc1ccc2cc(C(=O)N3CCC(CC(=O)NCCc4c[nH]c5ccc(C)cc45)CC3)[nH]c2c1
792	COc1ccc(NC(=O)N2CCCC(C)(C(=O)NCc3cccc(OC)c3)C2)cc1 (centres undefined)
633	CN1CCN(CCNC(=O)C2c3ccccc3C(=O)N(C3CCCC3)C2c2cccs2)CC1 (centres undefined)
635	CC1CCN(CCNC(=O)c2nc(CCS(=O)(=O)c3ccccc3)no2)CC1
852	O=C(Nc1ccccc1Cl)N(CCc1ccccc1)Cc1ccccn1
838	O=C(c1ccco1)N1CCN(C(=O)c2nnn3c2COC(c2ccc(Cl)cc2)C3)CC1 (centres undefined)
986	CCOc1ccc(-c2nc(C#N)c(N3CCN(C(=O)c4ccccc4Cl)CC3)o2)cc1
620	Cc1ccc(Cn2cc(-c3ccncc3)cc2C(=O)NC(C)c2ccccn2)cc1 (centres undefined)
612	CCOC(=O)c1noc2nc(C)nc(Nc3ccc(CN4CCN(CC)CC4)cc3)c12
689	CC(C)Cn1c(=O)c(N2CCN(C(=O)c3ccc(Cl)cc3)CC2)nc2ccncc21
685	Cn1ccc2cc(S(=O)(=O)N3CCCC(C(=O)NCCCN4CCc5ccccc5C4)C3)ccc21 (centres undefined)

RP-LC retention time [s]	SMILES
686	CCOC(=O)C1CCN(C(=O)C2CCCN(c3cnc4nccnc4c3)C2)CC1 (centres undefined)
805	CCc1ccc(NC(=O)Cc2nnc3c(-c4nc(C5CC5)no4)cccn23)cc1
646	Cn1cc(-c2ccncc2)cc1C(=O)NCc1ccc(Cl)cc1
918	CCc1ccccc1N1C=C(C(=O)OC)S(=O)(=O)c2ccccc21
961	Cc1c(Cl)cccc1Nc1c(-c2ccc(N(C)C)cc2)nc2cnccn12
668	O=C1CN(Cc2ccc(F)cc2Cl)C2(CCCC2)CN1
710	CCC(C)NC(=O)C1CCCN1S(=O)(=O)c1cc2c(cc1C)NC(=O)CO2 (centres undefined)
855	COc1cccc(CNC(=O)C2(C)CCCN(C(=O)NCCc3ccccc3)C2)c1 (centres undefined)
740	COc1ccc(OC)c(NC(=O)N2CCC3(CC2)NC(=O)c2ccccc2O3)c1
765	O=C(NCCc1ccccc1)N1CCN(c2ncccc2-c2nnc(C3CC3)o2)CC1
723	CC1CCN(C(=O)c2cc(S(=O)(=O)N(C)CC(=O)NC(C)C)cn2C)CC1
772	CCOC(=O)c1c(S(=O)(=O)N2CCC(C(=O)NCc3cccc(OC)c3)CC2)c(C)n(C)c1C
661	Cn1c(SCC(=O)N2CCCC2)nnc1-c1ccc2c(c1)OCCCO2
976	CCc1ccc(C2=C(C)C(N3CCCN(C(=O)C4CCCCC4)CC3)=NS2(=O)=O)cc1
946	CCOC(=O)C1=C(C)NC(=O)NC1c1cn(-c2ccccc2)nc1-c1ccc(OCC)cc1 (centres undefined)
616	Cn1cc(-c2cc3n(n2)CCC(=O)N3CC(=O)NCCCN2CCCCC2)c2ccccc21
677	CCOC(=O)C1CCN(C(=O)c2n[nH]c(=O)c3ccccc23)CC1
1100	COc1cccc(C2Cn3nnc(-c4nc(-c5ccccc5F)no4)c3CO2)c1 (centres undefined)
604	O=C(C1CCCN(c2ncnc3c2nc2n3CCCCC2)C1)N1CCN(C2CCCCC2)CC1 (centres undefined)
883	Cc1ccc(NC(=O)C2CCN(S(=O)(=O)c3cn(C(C)C)cn3)CC2)cc1Cl
